Measurements taken from patent publication US8044023B2, “Hepatitis C virus inhibitors” (Bristol-Myers Squibb Company, priority 2008, dated 2011).

Key:
NS3/4A BMS Strain = NS3/4A BMS Strain (UniProt P27958); experiment: HCV NS3/4A protease complex enzyme assay; format: biochemical, Hepatitis C virus
Description: (§1) HCV NS3/4A protease complex enzyme assays and cell-based HCV replicon assays can be utilized in the present disclosure, and can be prepared, conducted and validated as described in the art (see, for Example, WO 2008/064061).
(§2) Compound 1 was tested as described above and found to have an IC50 (NS3/4A BMS Strain) of 4 nM. The EC50 is 5 nM.

HCV replicon = experiment: cell-based HCV replicon assay; conditions: Hepatitis C virus
Description: as §1, §2

Chain of NS3/4A BMS Strain (P27958 1027-1657): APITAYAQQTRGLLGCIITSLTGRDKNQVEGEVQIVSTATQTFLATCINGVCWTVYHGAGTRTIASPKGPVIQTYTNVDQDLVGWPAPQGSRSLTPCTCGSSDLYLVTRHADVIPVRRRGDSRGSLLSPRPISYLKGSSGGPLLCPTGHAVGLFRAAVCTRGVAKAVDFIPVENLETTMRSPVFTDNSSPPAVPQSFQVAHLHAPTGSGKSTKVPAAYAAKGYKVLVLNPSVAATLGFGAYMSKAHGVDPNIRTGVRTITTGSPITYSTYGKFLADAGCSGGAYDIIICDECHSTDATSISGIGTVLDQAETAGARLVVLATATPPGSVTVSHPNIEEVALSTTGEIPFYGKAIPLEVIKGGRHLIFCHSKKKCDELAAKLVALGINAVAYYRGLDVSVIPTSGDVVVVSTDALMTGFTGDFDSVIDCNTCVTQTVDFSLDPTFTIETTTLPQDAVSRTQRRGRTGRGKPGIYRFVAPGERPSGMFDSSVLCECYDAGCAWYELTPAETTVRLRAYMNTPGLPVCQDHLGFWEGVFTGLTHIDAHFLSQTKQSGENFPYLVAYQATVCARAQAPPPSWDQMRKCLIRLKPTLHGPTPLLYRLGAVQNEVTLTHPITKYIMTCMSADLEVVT

For `CCCCS[C@@]1(c2ccc(-c3ccccc3)cc2)C[C@H]2C(=O)N[C@]3(C(=O)NS(=O)(=O)C4CC4)C[C@H]3/C=C\CCCCC[C@H](NC(=O)OC(C)(C)C)C(=O)N2C1` [Compound 1, tert-butyl (2R,6S,13aS,14aR,16aS,Z)-2-(biphenyl-4-yl)-2-(butylthio)-14a-(cyclopropylsulfonylcarbamoyl)-5,16-dioxo-1,2,3,5,6,7,8,9,10,11,13a,14,14a,15,16,16a-hexadecahydrocyclopropa[e]pyrrolo[1,2-a][1,4]diazacyclopentadecin-6-ylcarbamate], the IC50 (NS3/4A BMS Strain) was 4 nM and the EC50 (HCV replicon) was 5 nM.
